Test results: patent US20260306525A1, “COMBINATION THERAPY GLUCOCORTICOIDS AND GINSENOSIDE” (FYTAGORAS B.V., priority 2023, published 2026)

Legend:
il8 = assay: qPCR il8 expression in zebrafish larvae; type: in vivo, zebrafish (Danio rerio); settings: Example 2, wounded larvae
Experimental: To determine mRNA levels of specific genes in zebrafish, 3 dpf larvae were used (wounded and non-wounded) and after 6 h of chemical treatments (2 h pre-wounding, 4 h post-wounding), as indicated. Per sample, groups of 15 larvae were collected in TRIzol reagent (Thermo Fisher Scientific, Waltham, MA, USA), and total RNA was isolated using the miRNeasy mini kit (Qiagen, Hilden, Germany). For similar experiments in Hela cells, cells were seeded in 6 well plates, and after 6 h of chemical treatment, the cells were removed from the wells using TRIzol reagent, and total RNA was isolated using the miRNeasy mini kit according to the manufacturer's instructions. The RNA samples were DNAse-treated utilizing the DNA-free™ DNA Removal Kit (Thermo Fisher Scientific). The cDNA synthesis was performed using the iScript cDNA synthesis kit (Bio-Rad Laboratories, Hercules, CA, USA) using 1 μg of RNA per sample. For the PCR reactions, 10 μM of forward and 10 μM of reverse primer, 12.5 μl of iQ SYBR Green Supermix (Bio-Rad), and 2 μl of cDNA were added to the qPCR reaction mixture. […] The reactions were performed on a MyiQ-single-color real-time PCR detection system (Bio-Rad Laboratories) with initial denaturation for 3 min at 95° C. and 40 cycles of 15 s at 95.5° C., 15 s at 60° C., and 30 s at 72° C. Cycle threshold values (Ct values, i.e. the cycle numbers at which a threshold value of the fluorescence intensity was reached) were determined for each sample. The gene expression level for each sample was normalized using the expression of ppial (peptidylprolyl isomerase Ab (cyclophilin A)) for zebrafish samples, 18S rRNA for human cells. The fold change per sample (compared to the respective control group) was calculated using the ΔΔCt method.

neutrophils = assay: zebrafish tail fin wounding assay, neutrophil migration to wounded site; type: in vivo, zebrafish (Danio rerio); settings: for migration of neutrophils upon tail fin wounding: Example 2, PPT 50 μM, F1, Rh1, Rg1 100 μM, Bec positive control, 3 dpf; for reduction in neutrophil migration in presence of Gba2 inhibitor MZ31: MZ31 (10 μM) co-treatment; for migration of neutrophils towards the wounded site: 4 h after wounding
Experimental: Zebrafish (Danio rerio) were maintained and handled according to the guidelines from the Zebrafish Model Organism Database (http://zfin.org) and in compliance with the directives of the local animal welfare committee of Leiden University. Zebrafish were exposed to a 14 h light and 10 h dark cycle to maintain circadian rhythmicity. Fertilization was performed by natural spawning at the beginning of the light period. […] The following zebrafish lines were used in this study: the double transgenic line Tg(mpx:GFP^i114/mpeg1:mCherry^umsF001), in which neutrophils and macrophages are fluorescently labeled (green and red, respectively), and the Tg(9xGCRE-HSV.UI23:EGFP)^ia20 reporter line, in which the gene encoding enhanced green fluorescent protein (EGFP) is driven by a GRE-containing promoter.
For the tail fin wounding experiments, 20 larvae at 2 or 3 days post-fertilization (dpf) were utilized for each experimental group. For wounding, larvae were anesthetized in egg water containing 0.02% buffered aminobenzoic acid ethyl ester (tricaine; Sigma-Aldrich). Larvae were placed on Petri dishes coated with 2% agarose under a Leica M165C stereomicroscope (Leica Microsystems, Wetzlar, Germany), and the tails were partly amputated using a 1-mm sapphire blade (World Precision Instruments, Sarasota, FL, USA). For quantification of leukocyte migration, larvae were fixed overnight in 4% paraformaldehyde (PFA) at 4° C. The next day, fixed larvae were washed with Phosphate Buffered Saline (PBS) containing 0.1% Tween 20, and stored at 4° C. until imaging.
The macrophages were detected based on their red (mCherry) fluorescence, and neutrophils based on their green (EGFP) fluorescence. To quantify the number of macrophages and neutrophils recruited to the wounded area, the cells in a defined area of the tail were determined by blinded manual counting.
Zebrafish (Danio rerio) were maintained and handled according to the guidelines from the Zebrafish Model Organism Database (http://zfin.org) and in compliance with the directives of the local animal welfare committee of Leiden University. Zebrafish were exposed to a 14 h light and 10 h dark cycle to maintain circadian rhythmicity. Fertilization was performed by natural spawning at the beginning of the light period. […] The following zebrafish lines were used in this study: AB/TL wild type, the transgenic lines Tg(mpx:GFP^i114/mpeg1:mCherry^umsF001)[14, 15], and Tg(9xGCRE-HSV.UI23:EGFPia^20)[16], and the mutant lines grs357[20].
For the tail fin wounding experiments, 2- or 3-days post-fertilization (dpf) larvae were anesthetized in egg water containing 0.02% buffered aminobenzoic acid ethyl ester (tricaine; Sigma-Aldrich). Larvae were placed in Petri dishes coated with 2% agarose under a Leica M165C stereomicroscope (Leica Microsystems, Wetzlar, Germany), and the tails were partly amputated using a 1-mm sapphire blade (World Precision Instruments, Sarasota, FL, USA).
In experiments in which the leukocyte migration was used as a readout, larvae were subjected to treatment with chemicals as indicated, starting at 2 h before the amputation (pretreatment), and treatment was continued for 4 h after the tail fin amputation (20 larvae per group, unless indicated otherwise). In some experiments, a 24 h treatment with MZ31 (10 μM) was started at 2 dpf, and these treatments were continued during the pretreatment and treatment with the other chemicals. At 4 h after amputation, the larvae were fixed in 4% paraformaldehyde (PFA) overnight at 4° C. The next day, fixed larvae were washed with Phosphate Buffered Saline (PBS) containing 0.1% Tween 20 and stored at 4° C. until imaging. […] The macrophages were detected based on red (mCherry) fluorescence and neutrophils on their green (EGFP) fluorescence. To quantify the number of macrophages and neutrophils recruited to the wounded area, the cells in a defined area of the tail were determined by blinded manual counting. […]

## CC(C)=CCC[C@](C)(O[C@@H]1O[C@H](CO)[C@@H](O)[C@H](O)[C@H]1O)[C@H]1CC[C@]2(C)[C@@H]1[C@H](O)C[C@@H]1[C@@]3(C)CC[C@H](O)C(C)(C)[C@@H]3[C@@H](O)C[C@]12C [F1]
il8
  il8 expression: Only a minor effect
neutrophils
  migration of neutrophils upon tail fin wounding: inhibited the migration of neutrophils
  reduction in neutrophil migration in presence of Gba2 inhibitor MZ31: did not affect the reduction in neutrophil migration

## CC(C)=CCC[C@](C)(O)[C@H]1CC[C@]2(C)[C@@H]1[C@H](O)C[C@@H]1[C@@]3(C)CC[C@H](O)C(C)(C)[C@@H]3[C@@H](O[C@@H]3O[C@H](CO)[C@@H](O)[C@H](O)[C@H]3O)C[C@]12C [Rh1]
il8
  il8 expression: no effect
neutrophils
  migration of neutrophils upon tail fin wounding: inhibited the migration of neutrophils
  reduction in neutrophil migration in presence of Gba2 inhibitor MZ31: did not affect the reduction in neutrophil migration

## CC(C)=CCC[C@](C)(O[C@@H]1O[C@H](CO)[C@@H](O)[C@H](O)[C@H]1O)[C@H]1CC[C@]2(C)[C@@H]1[C@H](O)C[C@@H]1[C@@]3(C)CC[C@H](O)C(C)(C)[C@@H]3[C@@H](O[C@@H]3O[C@H](CO)[C@@H](O)[C@H](O)[C@H]3O)C[C@]12C [Rg1, (3β,6α, 12β)-3,12-Dihydroxydammar-24-ene-6,20-diyl bis-β-D-glucopyranoside]
il8
  il8 expression: no effect
neutrophils
  migration of neutrophils upon tail fin wounding: inhibited the migration of neutrophils
  reduction in neutrophil migration in presence of Gba2 inhibitor MZ31: this inhibitor abolished the effect of the polyglycosylated ginsenoside Rg1
neutrophils; Rg1 40 μM and lower
  migration of neutrophils towards the wounded site: did not alter the neutrophil migration

## CC(C)=CCC[C@](C)(O)[C@H]1CC[C@]2(C)[C@@H]1[C@H](O)C[C@@H]1[C@@]3(C)CC[C@H](O)C(C)(C)[C@@H]3[C@@H](O)C[C@]12C [PPT, Protopanaxatriol]
il8
  il8 expression: Only a minor effect
neutrophils
  migration of neutrophils upon tail fin wounding: inhibited the migration of neutrophils
  reduction in neutrophil migration in presence of Gba2 inhibitor MZ31: did not affect the reduction in neutrophil migration

## C[C@H]1C[C@H]2[C@@H]3CCC4=CC(=O)C=C[C@]4(C)[C@@]3(Cl)[C@@H](O)C[C@]2(C)[C@@]1(O)C(=O)CO [beclomethasone, reference compound]
neutrophils
  migration of neutrophils upon tail fin wounding: inhibited the migration of neutrophils
neutrophils; beclomethasone 20 μM and 40 μM
  migration of neutrophils towards the wounded site: did significantly reduce the neutrophil migration
neutrophils; beclomethasone lower than 10 μM
  migration of neutrophils towards the wounded site: did not affect the migration of neutrophils towards the wounded site
